The record followed here is ChEMBL document CHEMBL5291721, “A preclinical secondary pharmacology resource illuminates target-adverse drug reaction associations of marketed drugs” (Nat Commun, 2023).

Bounds are passed on as bounds.

In general, AC50 refers to the midpoint of the concentration-response curve, whichever way the signal moves. A higher AC50 goes with weaker potency.

Experiment [1] addresses 5-hydroxytryptamine receptor 2B (Homo sapiens, UniProt P41595). Type of experiment: functional, cell-based.
The target in a further experiment is Mu-type opioid receptor (Homo sapiens, UniProt P35372).
For another experiment, the target named is T1, Progesterone receptor (Homo sapiens, UniProt P06401).
T1 sequence (P06401 whole entry): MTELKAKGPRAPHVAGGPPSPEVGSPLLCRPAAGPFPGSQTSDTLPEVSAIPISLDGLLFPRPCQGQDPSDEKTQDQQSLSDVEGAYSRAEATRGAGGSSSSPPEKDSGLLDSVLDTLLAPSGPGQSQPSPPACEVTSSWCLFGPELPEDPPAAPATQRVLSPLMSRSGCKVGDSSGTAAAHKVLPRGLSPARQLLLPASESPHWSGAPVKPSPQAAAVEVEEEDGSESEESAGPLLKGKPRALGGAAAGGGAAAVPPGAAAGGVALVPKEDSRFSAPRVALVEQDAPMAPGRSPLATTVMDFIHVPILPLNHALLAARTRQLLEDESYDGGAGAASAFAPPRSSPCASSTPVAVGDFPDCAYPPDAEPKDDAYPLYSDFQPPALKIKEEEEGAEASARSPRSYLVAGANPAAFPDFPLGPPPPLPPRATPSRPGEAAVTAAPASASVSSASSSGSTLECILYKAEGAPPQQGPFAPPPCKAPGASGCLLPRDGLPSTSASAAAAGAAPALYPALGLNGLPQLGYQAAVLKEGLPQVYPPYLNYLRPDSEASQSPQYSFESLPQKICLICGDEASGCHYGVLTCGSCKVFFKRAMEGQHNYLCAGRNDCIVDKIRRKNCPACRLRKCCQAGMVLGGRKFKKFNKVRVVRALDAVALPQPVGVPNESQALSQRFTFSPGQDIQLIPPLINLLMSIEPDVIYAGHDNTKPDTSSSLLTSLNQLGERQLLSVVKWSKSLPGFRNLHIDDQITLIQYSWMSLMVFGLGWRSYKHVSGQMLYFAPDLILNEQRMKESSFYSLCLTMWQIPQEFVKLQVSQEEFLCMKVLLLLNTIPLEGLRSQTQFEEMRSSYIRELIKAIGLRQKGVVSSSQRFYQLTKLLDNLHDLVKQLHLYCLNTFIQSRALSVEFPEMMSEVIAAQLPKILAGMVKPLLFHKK

The target of experiment [2] is T2, Alpha-2A adrenergic receptor (Homo sapiens, UniProt P08913).
T2 sequence (P08913 whole entry): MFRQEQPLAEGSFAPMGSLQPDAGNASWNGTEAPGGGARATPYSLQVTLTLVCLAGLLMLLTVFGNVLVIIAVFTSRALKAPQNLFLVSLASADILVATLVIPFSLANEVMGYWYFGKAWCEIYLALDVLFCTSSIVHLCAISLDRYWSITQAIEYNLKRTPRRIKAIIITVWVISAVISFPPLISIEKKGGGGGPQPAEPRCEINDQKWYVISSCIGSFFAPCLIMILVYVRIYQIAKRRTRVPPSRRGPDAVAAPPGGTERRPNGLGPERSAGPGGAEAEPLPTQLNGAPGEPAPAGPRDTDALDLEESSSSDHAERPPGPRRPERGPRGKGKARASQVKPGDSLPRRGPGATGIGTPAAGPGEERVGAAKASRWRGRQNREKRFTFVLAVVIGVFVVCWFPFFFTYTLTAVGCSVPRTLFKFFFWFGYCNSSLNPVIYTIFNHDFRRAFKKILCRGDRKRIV

Experiment [3] concerns the target Sodium-dependent serotonin transporter (Homo sapiens, UniProt P31645).
Experiment [4] addresses Voltage-gated inwardly rectifying potassium channel KCNH2 (Homo sapiens, UniProt Q12809). Type of experiment: functional.
In the next experiment the target is T3, Thromboxane A2 receptor (Homo sapiens, UniProt P21731).
T3 sequence (P21731 whole entry): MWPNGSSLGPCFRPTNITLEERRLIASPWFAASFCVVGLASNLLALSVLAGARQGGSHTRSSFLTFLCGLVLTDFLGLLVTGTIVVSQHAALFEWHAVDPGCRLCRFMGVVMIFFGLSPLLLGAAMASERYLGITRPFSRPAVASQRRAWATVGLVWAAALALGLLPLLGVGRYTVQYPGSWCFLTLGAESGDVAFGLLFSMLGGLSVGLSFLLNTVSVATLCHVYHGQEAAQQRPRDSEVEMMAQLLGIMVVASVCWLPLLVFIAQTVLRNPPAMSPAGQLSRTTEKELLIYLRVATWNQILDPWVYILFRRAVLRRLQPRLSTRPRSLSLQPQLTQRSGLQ
Type of experiment: functional, cell-based.

Experiment [5] deals with Vascular endothelial growth factor receptor 2 (Homo sapiens, UniProt P35968). In kind it is functional.
Note: assay procedure not described here.

Voltage-gated inwardly rectifying potassium channel KCNH2, sequence (Q12809 whole entry): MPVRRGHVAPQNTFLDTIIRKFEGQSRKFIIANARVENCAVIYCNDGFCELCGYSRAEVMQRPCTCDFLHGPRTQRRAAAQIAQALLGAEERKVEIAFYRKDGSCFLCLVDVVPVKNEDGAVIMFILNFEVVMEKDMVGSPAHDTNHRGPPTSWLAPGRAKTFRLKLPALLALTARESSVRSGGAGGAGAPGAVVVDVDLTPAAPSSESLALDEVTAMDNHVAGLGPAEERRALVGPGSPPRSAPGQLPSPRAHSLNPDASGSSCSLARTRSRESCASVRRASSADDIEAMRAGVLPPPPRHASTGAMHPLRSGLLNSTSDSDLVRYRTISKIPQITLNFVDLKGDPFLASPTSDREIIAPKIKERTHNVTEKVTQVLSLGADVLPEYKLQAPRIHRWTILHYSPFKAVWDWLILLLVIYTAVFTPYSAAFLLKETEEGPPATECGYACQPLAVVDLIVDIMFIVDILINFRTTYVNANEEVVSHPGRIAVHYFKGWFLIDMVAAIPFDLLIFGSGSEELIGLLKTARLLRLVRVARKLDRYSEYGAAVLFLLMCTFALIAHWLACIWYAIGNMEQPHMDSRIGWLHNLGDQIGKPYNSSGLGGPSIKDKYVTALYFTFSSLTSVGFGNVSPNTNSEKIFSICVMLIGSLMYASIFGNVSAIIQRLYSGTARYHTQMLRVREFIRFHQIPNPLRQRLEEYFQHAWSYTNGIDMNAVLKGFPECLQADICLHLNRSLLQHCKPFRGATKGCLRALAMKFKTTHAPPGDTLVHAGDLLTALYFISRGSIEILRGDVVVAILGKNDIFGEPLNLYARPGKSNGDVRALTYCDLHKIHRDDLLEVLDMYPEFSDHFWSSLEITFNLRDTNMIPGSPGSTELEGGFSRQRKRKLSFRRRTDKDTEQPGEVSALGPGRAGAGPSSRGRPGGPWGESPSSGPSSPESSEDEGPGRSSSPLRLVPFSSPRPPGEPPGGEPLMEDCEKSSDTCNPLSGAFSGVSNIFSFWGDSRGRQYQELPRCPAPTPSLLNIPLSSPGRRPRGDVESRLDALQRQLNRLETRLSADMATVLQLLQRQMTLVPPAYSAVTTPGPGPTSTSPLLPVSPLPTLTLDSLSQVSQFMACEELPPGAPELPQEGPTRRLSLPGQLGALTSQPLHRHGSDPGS
Vascular endothelial growth factor receptor 2, sequence (P35968 whole entry): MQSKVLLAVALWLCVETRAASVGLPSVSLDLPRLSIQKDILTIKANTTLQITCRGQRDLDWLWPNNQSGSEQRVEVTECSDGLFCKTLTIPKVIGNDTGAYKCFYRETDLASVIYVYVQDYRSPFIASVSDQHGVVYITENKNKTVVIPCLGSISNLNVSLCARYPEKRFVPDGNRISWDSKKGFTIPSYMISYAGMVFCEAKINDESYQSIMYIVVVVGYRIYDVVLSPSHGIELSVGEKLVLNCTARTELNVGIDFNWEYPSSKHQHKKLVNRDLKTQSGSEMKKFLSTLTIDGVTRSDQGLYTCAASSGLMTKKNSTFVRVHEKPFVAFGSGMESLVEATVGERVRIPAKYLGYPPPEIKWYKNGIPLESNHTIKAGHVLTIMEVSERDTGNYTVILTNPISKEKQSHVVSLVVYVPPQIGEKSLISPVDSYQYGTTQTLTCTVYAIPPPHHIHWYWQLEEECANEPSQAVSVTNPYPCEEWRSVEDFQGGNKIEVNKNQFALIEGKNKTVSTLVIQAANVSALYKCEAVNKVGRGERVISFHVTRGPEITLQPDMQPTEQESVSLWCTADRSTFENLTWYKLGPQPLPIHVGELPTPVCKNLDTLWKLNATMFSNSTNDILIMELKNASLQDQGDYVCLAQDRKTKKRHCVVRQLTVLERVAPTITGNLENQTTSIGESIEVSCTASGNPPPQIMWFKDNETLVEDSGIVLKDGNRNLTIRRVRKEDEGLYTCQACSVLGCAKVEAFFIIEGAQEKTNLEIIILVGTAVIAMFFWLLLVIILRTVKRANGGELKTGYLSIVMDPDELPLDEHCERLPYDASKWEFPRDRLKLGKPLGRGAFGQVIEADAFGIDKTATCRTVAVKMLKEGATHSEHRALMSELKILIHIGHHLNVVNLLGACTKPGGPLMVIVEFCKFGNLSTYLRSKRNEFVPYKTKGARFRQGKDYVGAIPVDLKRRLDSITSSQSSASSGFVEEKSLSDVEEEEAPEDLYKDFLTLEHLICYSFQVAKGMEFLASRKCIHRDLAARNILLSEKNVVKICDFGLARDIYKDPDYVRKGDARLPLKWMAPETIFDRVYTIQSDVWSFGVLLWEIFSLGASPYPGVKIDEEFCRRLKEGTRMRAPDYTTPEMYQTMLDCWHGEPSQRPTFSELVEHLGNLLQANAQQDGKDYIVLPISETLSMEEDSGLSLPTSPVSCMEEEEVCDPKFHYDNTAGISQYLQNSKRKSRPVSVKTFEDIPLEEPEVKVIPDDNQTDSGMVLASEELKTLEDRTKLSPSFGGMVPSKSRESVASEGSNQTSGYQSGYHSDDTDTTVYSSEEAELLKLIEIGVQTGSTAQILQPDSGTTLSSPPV
5-hydroxytryptamine receptor 2B, sequence (P41595 whole entry): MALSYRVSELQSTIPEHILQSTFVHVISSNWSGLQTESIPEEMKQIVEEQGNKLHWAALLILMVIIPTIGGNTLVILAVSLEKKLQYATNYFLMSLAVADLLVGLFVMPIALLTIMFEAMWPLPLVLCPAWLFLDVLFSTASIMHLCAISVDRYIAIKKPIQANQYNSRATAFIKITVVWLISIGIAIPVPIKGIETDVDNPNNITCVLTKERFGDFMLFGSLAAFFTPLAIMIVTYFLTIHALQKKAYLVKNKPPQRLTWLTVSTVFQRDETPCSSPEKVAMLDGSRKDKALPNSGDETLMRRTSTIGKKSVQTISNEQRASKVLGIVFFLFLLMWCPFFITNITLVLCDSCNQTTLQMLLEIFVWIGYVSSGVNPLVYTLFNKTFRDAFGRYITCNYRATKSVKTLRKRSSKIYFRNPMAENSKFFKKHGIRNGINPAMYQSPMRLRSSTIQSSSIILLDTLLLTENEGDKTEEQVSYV
Sodium-dependent serotonin transporter, sequence (P31645 whole entry): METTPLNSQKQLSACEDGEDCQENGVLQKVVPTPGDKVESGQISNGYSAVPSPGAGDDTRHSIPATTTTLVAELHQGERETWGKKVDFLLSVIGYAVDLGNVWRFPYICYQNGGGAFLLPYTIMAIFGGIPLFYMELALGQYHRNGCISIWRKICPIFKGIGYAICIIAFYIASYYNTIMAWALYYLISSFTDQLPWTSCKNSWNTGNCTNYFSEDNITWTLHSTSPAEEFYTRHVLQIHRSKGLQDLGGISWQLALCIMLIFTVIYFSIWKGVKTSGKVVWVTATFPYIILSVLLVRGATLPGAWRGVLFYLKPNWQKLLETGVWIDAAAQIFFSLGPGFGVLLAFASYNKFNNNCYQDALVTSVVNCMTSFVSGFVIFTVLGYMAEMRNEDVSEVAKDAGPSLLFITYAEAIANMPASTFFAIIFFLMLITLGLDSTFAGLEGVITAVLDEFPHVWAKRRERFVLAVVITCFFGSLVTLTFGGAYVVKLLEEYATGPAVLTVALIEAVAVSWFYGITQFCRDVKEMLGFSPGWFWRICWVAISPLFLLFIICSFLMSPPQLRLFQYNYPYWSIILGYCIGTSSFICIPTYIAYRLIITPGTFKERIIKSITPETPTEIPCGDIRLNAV
Mu-type opioid receptor, sequence (P35372 whole entry): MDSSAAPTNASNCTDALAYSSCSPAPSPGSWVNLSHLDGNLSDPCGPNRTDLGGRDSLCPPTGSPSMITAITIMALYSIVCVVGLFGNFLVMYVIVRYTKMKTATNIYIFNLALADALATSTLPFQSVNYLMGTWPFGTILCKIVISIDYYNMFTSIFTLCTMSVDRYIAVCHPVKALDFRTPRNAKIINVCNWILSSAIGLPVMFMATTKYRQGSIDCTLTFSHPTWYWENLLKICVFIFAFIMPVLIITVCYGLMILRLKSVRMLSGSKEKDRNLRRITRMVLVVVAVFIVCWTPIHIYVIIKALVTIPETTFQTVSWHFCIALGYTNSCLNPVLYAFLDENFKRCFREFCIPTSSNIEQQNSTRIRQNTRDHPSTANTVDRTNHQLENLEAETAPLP

For the molecule `CC[C@@H]1C[C@]1(NC(=O)[C@@H]1C[C@@H]2CN1C(=O)[C@H](C(C)(C)C)NC(=O)OCC(C)(C)CCCCc1cccc3c1CN(C3)C(=O)O2)C(=O)NS(=O)(=O)C1CC1`, the AC50 (in experiment [1]; at Mu-type opioid receptor; on Progesterone receptor; in experiment [2]; in experiment [3]; in experiment [4]) was more than 30 µM in each case. Moreover, the AC50 on Thromboxane A2 receptor worked out at 29.5 µM; in experiment [5], 16.3 µM.
On to `CC(=O)NCCCCCC(=O)O` [ACEXAMIC ACID], for which the AC50 (in experiment [1]; on Mu-type opioid receptor; on Progesterone receptor; in experiment [2]; in experiment [3]; in experiment [4]) was more than 30 µM each time. For the same molecule, the AC50 (on Thromboxane A2 receptor; in experiment [5]) was more than 30 µM in each case.
On to `C=C(C)CNc1ccc(C(C)C(=O)O)cc1` (stereo unspecified) [ALMINOPROFEN], for which the AC50 (in experiment [1]; at Mu-type opioid receptor; on Progesterone receptor; in experiment [2]; in experiment [3]; in experiment [4]) was more than 30 µM each time. Moreover, the AC50 (on Thromboxane A2 receptor; in experiment [5]) was more than 30 µM in each case.
As for `C[C@H]1O[C@@H](O[C@H]2CC[C@@]3(C)[C@H](CC[C@@H]4[C@@H]3C[C@@H](O)[C@]3(C)[C@@H](C5=CC(=O)OC5)CC[C@]43O)C2)C[C@H](O)[C@@H]1O[C@H]1C[C@H](O)[C@H](O[C@H]2C[C@H](O)[C@H](O[C@@H]3O[C@H](CO)[C@@H](O)[C@H](O)[C@H]3O)[C@@H](C)O2)[C@@H](C)O1` [DESLANOSIDE], the AC50 (in experiment [1]; at Mu-type opioid receptor; on Progesterone receptor; in experiment [2]; in experiment [3]; in experiment [4]) was more than 30 µM each time. The AC50 (on Thromboxane A2 receptor; in experiment [5]) was more than 30 µM throughout.
Consider `CCCCC(CC)CN1CN(CC(CC)CCCC)CC(C)(N)C1` (stereo unspecified) [HEXETIDINE], for which the AC50 is more than 30 µM in experiment [1]; 4.86 µM on Mu-type opioid receptor; more than 30 µM at Progesterone receptor; 14.4 µM in experiment [2]; 6.51 µM in experiment [3]; 0.75 µM in experiment [4]. Further, the concentration at half-maximal activity (AC50) (at Thromboxane A2 receptor; in experiment [5]) was more than 30 µM each time.
On to `Cc1cc(=O)oc2cc(O)ccc12` [HYMECROMONE], for which the AC50 (in experiment [1]; on Mu-type opioid receptor; at Progesterone receptor; in experiment [2]; in experiment [3]; in experiment [4]) was more than 30 µM in each case. Besides, the AC50 on Thromboxane A2 receptor is more than 30 µM; in experiment [5], 25.4 µM.
On to `COc1c2occc2c(OC)c2c(=O)cc(C)oc12` [KHELLIN], for which the concentration at half-maximal activity (AC50) (in experiment [1]; on Mu-type opioid receptor; at Progesterone receptor; in experiment [2]; in experiment [3]; in experiment [4]) was more than 30 µM each time. In addition, the concentration at half-maximal activity (AC50) (at Thromboxane A2 receptor; in experiment [5]) was more than 30 µM throughout.
Take `CC(C)[C@@H]1CC[C@@H](C)C[C@H]1O` [LEVOMENTHOL]: the AC50 (in experiment [1]; on Mu-type opioid receptor; at Progesterone receptor; in experiment [2]; in experiment [3]; in experiment [4]) was more than 30 µM in each case. The AC50 (on Thromboxane A2 receptor; in experiment [5]) was more than 30 µM each time.
For the molecule `COC(=O)[C@@H](N)Cc1ccc(O)c(O)c1` [MELEVODOPA], the AC50 in experiment [1] was more than 30 µM; on Mu-type opioid receptor, more than 30 µM; at Progesterone receptor, more than 30 µM; in experiment [2] it was 20.3 µM; in experiment [3], more than 30 µM; in experiment [4] it was more than 30 µM. Besides, the AC50 (at Thromboxane A2 receptor; in experiment [5]) was more than 30 µM throughout.
Consider `C[N+]1(C)CCCC(OC(=O)C(O)(c2ccccc2)c2ccccc2)C1` (stereo unspecified) [MEPENZOLATE], for which the AC50 was more than 30 µM in experiment [1]; more than 30 µM on Mu-type opioid receptor; more than 30 µM at Progesterone receptor; more than 30 µM in experiment [2]; 20.4 µM in experiment [3]; 13 µM in experiment [4]. The AC50 (on Thromboxane A2 receptor; in experiment [5]) was more than 30 µM in each case.
Take `C=N[C@@H](C(=O)N[C@@H]1C(=O)N2[C@@H]1SC(C)(C)[C@@H]2C(=O)O)c1ccccc1` [METAMPICILLIN]: the AC50 (in experiment [1]; at Mu-type opioid receptor; on Progesterone receptor; in experiment [2]; in experiment [3]; in experiment [4]) was more than 30 µM throughout. For the same molecule, the AC50 (on Thromboxane A2 receptor; in experiment [5]) was more than 30 µM in each case.
Regarding `O=C(NNCS(=O)(=O)O)c1ccncc1` [METHANIAZIDE], the concentration at half-maximal activity (AC50) (in experiment [1]; on Mu-type opioid receptor; at Progesterone receptor; in experiment [2]; in experiment [3]; in experiment [4]) was more than 30 µM in each case. Also, the AC50 (at Thromboxane A2 receptor; in experiment [5]) was more than 30 µM each time.
On to `Cc1cc(=O)[nH]c(=S)[nH]1` [METHYLTHIOURACIL], for which the AC50 (in experiment [1]; at Mu-type opioid receptor; on Progesterone receptor; in experiment [2]; in experiment [3]; in experiment [4]) was more than 30 µM throughout. The AC50 (at Thromboxane A2 receptor; in experiment [5]) was more than 30 µM throughout.
Regarding `CN(C)c1ccc(O)c2c1C[C@H]1C[C@H]3[C@H](N(C)C)C(O)=C(C(N)=O)C(=O)[C@@]3(O)C(O)=C1C2=O` [MINOCYCLINE], the AC50 (in experiment [1]; at Mu-type opioid receptor; at Progesterone receptor; in experiment [2]; in experiment [3]; in experiment [4]) was more than 30 µM each time. In addition, the AC50 (on Thromboxane A2 receptor; in experiment [5]) was more than 30 µM in each case.
Turning to `CCNC(=O)/C=C(C)/C=C/C=C(C)/C=C/c1c(C)cc(OC)c(C)c1C` [MOTRETINIDE], the AC50 in experiment [1] is more than 30 µM; at Mu-type opioid receptor, 28.4 µM; on Progesterone receptor, 0.932 µM; in experiment [2] it was more than 30 µM; in experiment [3], 28.3 µM; in experiment [4], 5.7 µM. For the same molecule, the AC50 (on Thromboxane A2 receptor; in experiment [5]) was more than 30 µM throughout.
For the molecule `C=CC(=O)Nc1cccc(Oc2nc(Nc3ccc(N4CCN(C)CC4)cc3)nc3ccsc23)c1` [OLMUTINIB], the AC50 in experiment [1] was more than 30 µM; on Mu-type opioid receptor, 5.5 µM; at Progesterone receptor it was more than 30 µM; in experiment [2], 0.881 µM; in experiment [3], more than 30 µM; in experiment [4] it was 0.54 µM. The half-maximal activity concentration (AC50) is more than 30 µM on Thromboxane A2 receptor and 2.06 µM in experiment [5].
Take `CCCCC1C(=O)N(c2ccccc2)N(c2ccc(O)cc2)C1=O` (stereo unspecified) [OXYPHENBUTAZONE ANHYDROUS]: the AC50 (in experiment [1]; on Mu-type opioid receptor; on Progesterone receptor; in experiment [2]; in experiment [3]; in experiment [4]) was more than 30 µM throughout. The half-maximal activity concentration (AC50) (on Thromboxane A2 receptor; in experiment [5]) was more than 30 µM in each case.
